The target of one assay is T1, cereblon (NanoLuc-CRBN) (Homo sapiens, UniProt Q96SW2).
T1 construct: host or cells: HEK293T
Briefly: NanoBRET CRBN Cellular Target Engagement Assay. Conditions: compound tested at 10 μM, HEK293T cells transfected with NanoLuc-CRBN, 2 hr incubation; for remaining activity at 10 µM: lower = higher affinity, read-out: % tracer bound At the end of assay; for inhibition at 10 µM: read-out: % tracer removed From CBLN. In kind it is binding. An excerpt:
The following example measures the extent to which a test compound of this invention binds to cereblon. In this example, a commercially available cereblon binding test kit (Promega Corporation, Madison, Wis., USA) was used but adapted to a 384 well format.
The kit comprises a tracer that binds to cereblon to form a tracer-cereblon complex. This complex is reversible. Upon addition of the test compound, competition between the tracer and the test compound for the binding site(s) on cereblon occurs. The extent of tracer release from cereblon correlates to the affinity of test compound to bind to cereblon. The higher the affinity, the more tracer is released from cereblon.
The assay is a homogenous cell-based assay that used bioluminescence resonance energy transfer (BRET) to measure cereblon target compound binding which causes loss of BRET. Lower BRET values correlate to higher loss of tracer bound to cereblon and, accordingly, higher the levels of target compound binding to cereblon.
The specifics of the assay include HEK293T cells were transfected with a NanoLuc-CRBN expression plasmid using Fugene as described. Approximately 24 hr later, transfected cells were washed with 1× Phosphate Buffered Saline (PBS) and harvested using trypsin. Cells were resuspended in Opti-MEM (available from Thermo Fisher Scientific) at a concentration of 2×10^5 cells/mL. A ratio of 1 part 100× Tracer to 4 parts NanoBRET Tracer Dilution Buffer was used to make a 20× Tracer stock. Next, 40 μl cells per well containing 1× tracer was dispensed into 384 well white tissue culture treated plates. Compounds were then dispensed using a D330e Digital Dispenser (Tecan Trading AG) and plates were allowed to incubate for 2 hr at 37° C., 5% CO2. Immediately prior to BRET measurements, a 3× Complete NanoBret Nano-Glo Substrate stock in Opti-MEM was prepared and 20 μl per well of substrate was subsequently added to the assay plates. Following a 2-3 minute incubation at room temperature, donor (450 nm) and acceptor (610 nm) emission values were read on a CLARIOStar multimode plate reader (BMG) in luminescence mode. Data were converted to milliBRET units by dividing acceptor emission values by donor emission and multiplying by 1000. […]
(In general: Bioluminescence resonance energy transfer reports proximity on the nanometre scale.)

A further assay has as its target T2, IKZF1 (Ikaros) (Homo sapiens, UniProt Q13422+Q96SW2).
T2 construct: mScarlet (C, cleaved yes); expressed in transfected cells
Briefly: Stable cell line fluorescent reporter degradation assay, IKZF1. In kind it is cell-based. Conditions: 10 micromolar, HEK 293T IKZF1-mNeonGreen reporter cells, 24 hour incubation, calculated visually from the curves. An excerpt: (§1) Polycistronic plasmids were constructed for the mammalian expression of fluorescent reporter fusions of human transcription factors IKZF1 (Ikaros) and IKZF3 (Aiolos). The respective protein sequences had their C-terminal end joined to a GGGGS linker repeated three times followed by mNeonGreen, P2A sequence, and mScarlet. IKZF1 expression was driven by a CMV promoter while IKZF3 was EF1α promoter driven. The plasmids contained the HygR resistance gene for positive selection of cells with genomic integration of the reporter constructs. The plasmids were transfected using cationic lipid reagents into adherent HEK 293T cells and stable integrants were selected by treatment with 200 ug/mL hygromycin B. Clonal populations were obtained from the population of stable integrants either by limiting dilution or fluorescence activated cell sorting. The clonal stable cell lines were maintained under constant 200 ug/mL hygromycin B selection while being passaged for use in the degradation assays. The fluorescence intensity of the IKZF1/2/3-mNeonGreen (FITC channel) and mScarlet (PE channel) reporters were routinely analyzed by flow cytometry to confirm consistent expression levels between experiments.
(§2) Representative compounds were evaluated for their ability to degrade IKZF1 and IKZF3 in the following assay.
(§3) The IKZF1/IKZF3 degradation assays were carried out by harvesting the HEK 293T reporter cell lines and resuspending the cells in media formulated for reduced background fluorescence. The respective cell lines were seeded at a density of 4,000 cells/well into black-walled 384-well optical grade assay plates pre-coated by the manufacturer with PDL. The cells were incubated overnight to allow for attachment to the assay plate (37° C. with humidified air and 5% CO2 for all incubations). Dilutions of the compounds were prepared in dimethyl sulfoxide (DMSO) from 10 mM compound stock solutions in DMSO. The assay plates were treated with appropriate concentrations of the compounds by dispensing the DMSO dilutions in quadruplicate wells with an upper limit of 0.5% final DMSO.
(§4) After a 24 hour incubation with the compounds, the assay plates were imaged on an ImageXpress Pico microscopy system (cells maintained at 37° C. during imaging) to obtain the fluorescent readouts. The assay plates were imaged in the FITC and TRITC channels to obtain the mNeonGreen fluorescence intensity (reporter degradation data) and mScarlet fluorescence intensity (for cell segmentation), respectively. 293T-IKZF1 and 293T-IKZF3 reporter cell lines were imaged with exposures of 500 milliseconds (ms) for both FITC and TRITC channels. The resulting data was analyzed with Cell Reporter Xpress software using the 2-channel cell scoring analysis with a “percent positive” readout. The TRITC channel was selected for the “nuclei” segmentation with a threshold of 20 while the FITC channel was selected for the “Marker 1” segmentation and a threshold of 100 for the IKZF1 and IKZF3 reporter lines. The minimum segmentation width was set to 6 micrometers and the maximum segmentation width was set to 15 micrometers for all cell lines.
(§5) The percent degradation amounts were calculated visually from the curves generated at a concentration of 10 micromolar.

A further assay has as its target T3, IKZF3 (Aiolos) (Homo sapiens, UniProt Q96SW2+Q9UKT9).
T3 construct: mScarlet (C, cleaved yes); expressed in transfected cells
Briefly: Stable cell line fluorescent reporter degradation assay, IKZF3. The format is cell-based. Conditions: 10 micromolar, HEK 293T IKZF3-mNeonGreen reporter cells, 24 hour incubation, calculated visually from the curves.
Text: as §1, §2, §3, §4, §5

The structures appear in SMILES notation.

T2 sequence (Q13422 whole entry): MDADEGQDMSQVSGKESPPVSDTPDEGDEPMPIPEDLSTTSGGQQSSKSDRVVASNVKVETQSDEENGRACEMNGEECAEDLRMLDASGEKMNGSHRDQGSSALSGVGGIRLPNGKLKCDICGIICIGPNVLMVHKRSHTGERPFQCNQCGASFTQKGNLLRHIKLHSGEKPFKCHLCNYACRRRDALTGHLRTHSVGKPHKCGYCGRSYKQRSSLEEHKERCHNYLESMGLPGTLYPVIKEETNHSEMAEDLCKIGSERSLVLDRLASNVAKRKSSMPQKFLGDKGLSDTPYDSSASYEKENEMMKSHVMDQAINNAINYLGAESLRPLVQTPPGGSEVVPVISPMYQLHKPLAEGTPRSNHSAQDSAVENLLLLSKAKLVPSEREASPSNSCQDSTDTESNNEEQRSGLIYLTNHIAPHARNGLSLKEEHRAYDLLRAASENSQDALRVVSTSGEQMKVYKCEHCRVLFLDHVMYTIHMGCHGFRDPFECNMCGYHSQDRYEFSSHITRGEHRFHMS
T2 sequence (Q96SW2 whole entry): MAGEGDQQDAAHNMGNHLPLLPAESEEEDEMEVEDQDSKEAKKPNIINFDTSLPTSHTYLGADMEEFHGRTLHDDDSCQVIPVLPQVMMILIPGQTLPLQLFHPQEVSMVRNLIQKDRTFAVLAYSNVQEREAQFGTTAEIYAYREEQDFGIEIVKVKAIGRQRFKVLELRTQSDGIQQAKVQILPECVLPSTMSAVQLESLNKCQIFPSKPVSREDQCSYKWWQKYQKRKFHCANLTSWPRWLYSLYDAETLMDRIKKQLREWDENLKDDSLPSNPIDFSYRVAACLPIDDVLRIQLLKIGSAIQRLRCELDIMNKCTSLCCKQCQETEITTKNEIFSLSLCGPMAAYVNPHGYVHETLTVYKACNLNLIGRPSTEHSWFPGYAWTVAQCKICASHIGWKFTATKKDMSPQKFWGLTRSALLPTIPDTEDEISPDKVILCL
T2 sequence (Q16531 whole entry partner): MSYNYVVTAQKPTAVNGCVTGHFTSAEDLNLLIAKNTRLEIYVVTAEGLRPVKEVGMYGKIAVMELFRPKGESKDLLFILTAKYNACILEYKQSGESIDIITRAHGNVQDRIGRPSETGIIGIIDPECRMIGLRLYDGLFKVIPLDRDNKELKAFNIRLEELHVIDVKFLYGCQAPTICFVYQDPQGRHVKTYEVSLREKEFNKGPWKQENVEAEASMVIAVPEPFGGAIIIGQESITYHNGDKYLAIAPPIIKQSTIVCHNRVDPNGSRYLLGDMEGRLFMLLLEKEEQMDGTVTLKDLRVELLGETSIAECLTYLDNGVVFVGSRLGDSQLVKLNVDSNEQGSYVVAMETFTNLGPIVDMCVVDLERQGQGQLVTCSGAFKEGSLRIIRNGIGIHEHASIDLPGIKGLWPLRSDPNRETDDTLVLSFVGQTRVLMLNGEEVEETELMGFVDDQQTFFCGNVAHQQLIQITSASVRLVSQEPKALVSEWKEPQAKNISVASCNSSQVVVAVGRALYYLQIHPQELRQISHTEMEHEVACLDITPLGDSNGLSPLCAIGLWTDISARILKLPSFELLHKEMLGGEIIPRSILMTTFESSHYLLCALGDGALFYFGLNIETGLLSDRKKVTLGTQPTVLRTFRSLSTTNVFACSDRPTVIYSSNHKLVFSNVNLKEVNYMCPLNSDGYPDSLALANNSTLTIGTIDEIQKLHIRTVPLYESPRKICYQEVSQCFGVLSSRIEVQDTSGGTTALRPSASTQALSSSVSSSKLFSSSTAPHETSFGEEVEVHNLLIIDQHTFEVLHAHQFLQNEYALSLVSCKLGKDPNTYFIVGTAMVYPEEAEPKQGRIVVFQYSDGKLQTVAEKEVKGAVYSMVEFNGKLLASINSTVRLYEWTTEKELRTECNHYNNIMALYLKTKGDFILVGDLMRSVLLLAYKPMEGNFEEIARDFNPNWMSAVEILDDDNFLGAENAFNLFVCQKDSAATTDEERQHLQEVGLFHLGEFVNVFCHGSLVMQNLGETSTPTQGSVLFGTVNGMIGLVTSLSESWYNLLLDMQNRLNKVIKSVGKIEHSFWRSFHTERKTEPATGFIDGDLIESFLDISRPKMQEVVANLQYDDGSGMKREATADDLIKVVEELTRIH
T1 sequence (Q96SW2 whole entry): as the sequence (Q96SW2 whole entry) above
T3 sequence (Q9UKT9 whole entry): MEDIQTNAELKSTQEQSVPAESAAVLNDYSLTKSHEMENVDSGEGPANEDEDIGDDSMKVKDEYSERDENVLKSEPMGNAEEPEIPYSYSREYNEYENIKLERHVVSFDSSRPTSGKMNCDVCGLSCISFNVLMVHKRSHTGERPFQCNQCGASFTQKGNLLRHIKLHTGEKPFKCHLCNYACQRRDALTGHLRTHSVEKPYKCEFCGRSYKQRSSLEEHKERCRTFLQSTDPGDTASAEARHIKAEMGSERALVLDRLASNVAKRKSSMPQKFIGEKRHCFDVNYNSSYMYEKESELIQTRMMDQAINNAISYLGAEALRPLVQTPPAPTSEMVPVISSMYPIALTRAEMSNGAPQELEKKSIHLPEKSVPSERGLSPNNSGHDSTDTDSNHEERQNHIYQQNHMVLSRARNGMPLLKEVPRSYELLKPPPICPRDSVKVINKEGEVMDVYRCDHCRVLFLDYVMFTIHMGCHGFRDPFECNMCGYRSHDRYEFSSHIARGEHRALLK
T3 sequence (Q96SW2 whole entry): as the sequence (Q96SW2 whole entry) above
T3 sequence (Q16531 whole entry partner): as the sequence (Q16531 whole entry partner) above

Broadly, the Dmax is the greatest extent of degradation seen. As to `COc1ccc(CNc2cccc3nc(C)n(C4CCC(=O)NC4=O)c(=O)c23)cc1` (stereo not shown) [Example 1, 3-(5-((4-methoxybenzyl)amino)-2-methyl-4-oxoquinazolin-3(4H)-yl)piperidine-2,6-dione], the remaining activity at 10 µM at cereblon (NanoLuc-CRBN) was found to be 47.3%. In addition, the inhibition at 10 µM on cereblon (NanoLuc-CRBN) worked out at 52.7%. Moreover, the figures for the Dmax at 10 µM at IKZF1 (Ikaros) and at IKZF3 (Aiolos) were 89.1% and 91.1%, respectively.

Consider `Cc1nc2cccc(NCc3ccc(F)cc3)c2c(=O)n1C1CCC(=O)NC1=O` (stereo not shown) [Example 4, 3-(5-((4-fluorobenzyl)amino)-2-methyl-4-oxoquinazolin-3(4H)-yl)piperidine-2,6-dione], for which, on cereblon (NanoLuc-CRBN), the remaining activity at 10 µM amounted to 40.9% and the inhibition at 10 µM came to 59.1%. The maximal degradation (Dmax) at 10 µM on IKZF1 (Ikaros) (HEK-293T, 24 h) was 92.4%. Further, the Dmax at 10 µM on IKZF3 (Aiolos) (HEK-293T, 24 h) is 95.8%.

Regarding `Cc1nc2cccc(NCc3cccc(F)c3)c2c(=O)n1C1CCC(=O)NC1=O` (stereo not shown) [Example 5, 3-(5-((3-fluorobenzyl)amino)-2-methyl-4-oxoquinazolin-3(4H)-yl)piperidine-2,6-dione], at cereblon (NanoLuc-CRBN), the remaining activity at 10 µM amounted to 23.8%. The inhibition at 10 µM on cereblon (NanoLuc-CRBN) stood at 76.2%. In addition, the Dmax at 10 µM on IKZF1 (Ikaros) (HEK-293T, 24 h) was 89.7%; on IKZF3 (Aiolos) (HEK-293T, 24 h), 93.6%.

Consider `Cc1cccc(CNc2cccc3nc(C)n(C4CCC(=O)NC4=O)c(=O)c23)c1` (stereo not shown) [Example 7, 3-(2-methyl-5-((3-methylbenzyl)amino)-4-oxoquinazolin-3(4H)-yl)piperidine-2,6-dione], for which the remaining activity at 10 µM at cereblon (NanoLuc-CRBN) was determined as 22.9%. For the same compound, the inhibition at 10 µM at cereblon (NanoLuc-CRBN) is 77.1%. Moreover, the Dmax at 10 µM on IKZF1 (Ikaros) (HEK-293T, 24 h) is 76.8%; on IKZF3 (Aiolos) (HEK-293T, 24 h), 94.3%.

Consider `Cc1nc2cccc(NCc3ccc(CN4CCN(c5ccc(C#N)cc5F)CC4)cc3)c2c(=O)n1C1CCC(=O)NC1=O` (stereo not shown) [Example 34, 4-(4-(4-(((3-(2,6-dioxopiperidin-3-yl)-2-methyl-4-oxo-3,4-dihydroquinazolin-5-yl)amino)methyl)benzyl)piperazin-1-yl)-3-fluorobenzonitrile], for which, on cereblon (NanoLuc-CRBN), the remaining activity at 10 µM was 27.4% and the inhibition at 10 µM was 72.6%. Moreover, the maximal degradation (Dmax) at 10 µM on IKZF1 (Ikaros) is 93.1%. The maximal degradation (Dmax) at 10 µM at IKZF3 (Aiolos) was 93.2%.

Regarding `Cc1nc2cccc(NCc3cccc(CN4CCN(c5ccc(C#N)cc5F)CC4)c3)c2c(=O)n1C1CCC(=O)NC1=O` (stereo not shown) [compound 33, 4-(4-(3-(((3-(2,6-dioxopiperidin-3-yl)-2-methyl-4-oxo-3,4-dihydroquinazolin-5-yl)amino)methyl)benzyl)piperazin-1-yl)-3-fluorobenzonitrile], the greatest degradation seen (Dmax) at 10 µM on IKZF1 (Ikaros) is 95.5%; on IKZF3 (Aiolos), 87.4%.

For the compound `O=C1CCC(n2nnc3cccc(NCc4ccc(CN5CCOCC5)cc4)c3c2=O)C(=O)N1` (stereo not shown) [compound 36, 3-(5-((4-(morpholinomethyl)benzyl)amino)-4-oxobenzo[d][1,2,3]triazin-3(4H)-yl)piperidine-2,6-dione], the Dmax at 10 µM was 88.2% on IKZF1 (Ikaros) (HEK-293T, 24 h) and 87.4% on IKZF3 (Aiolos) (HEK-293T, 24 h).

For the compound `Cc1nc2cccc(NCc3ccc(CN4CC(N5CCOCC5)C4)cc3F)c2c(=O)n1C1CCC(=O)NC1=O` (stereo not shown) [compound 91, 3-(5-((2-fluoro-4-((3-morpholinoazetidin-1-yl)methyl)benzyl)amino)-2-methyl-4-oxoquinazolin-3(4H)-yl)piperidine-2,6-dione], the Dmax at 10 µM was 97.1% on IKZF1 (Ikaros) (HEK-293T, 24 h) and 96.3% on IKZF3 (Aiolos) (HEK-293T, 24 h).

In the case of `O=C1CCC(n2cnc3cccc(NCc4ccc(CN5CC(N6CCOCC6)C5)cc4F)c3c2=O)C(=O)N1` (stereo not shown) [compound 101, 3-(5-((2-fluoro-4-((3-morpholinoazetidin-1-yl)methyl)benzyl)amino)-4-oxoquinazolin-3(4H)-yl)piperidine-2,6-dione], the Dmax at 10 µM on IKZF1 (Ikaros) (HEK-293T, 24 h) was 78.4%; at IKZF3 (Aiolos) (HEK-293T, 24 h) it was 92.4%.
